Assay results taken from article PMC9532755, “Impact of lactisole on the time-intensity profile of selected sweeteners in dependence of the binding site” (Food Chemistry: X, 2022).
Peptide text beside a SMILES is read from it.

Legend:
[1] = biological target: T1, human sweet taste receptor TAS1R2/TAS1R3 (Homo sapiens, UniProt Q7RTX0+Q8TE23); assay: Calcium mobilization assay in HEK293 Flp-In T-Rex-Gα15Gi3-TAS1R2/TAS1R3 cells (FLIPR, Fluo-4); format: cell-based; settings: for mode of inhibition by lactisole (shift of dose-response curve), cell experiments: combination with 10, 30, 100 μM lactisole; for time until reaching peak activity after agonist application / time where signal decreased below 50 % of the maximum signal amplitude, after agonist application: counted from agonist application at 20 sec; for time until reaching peak activity after agonist application / time where signal decreased below 50 % of the maximum signal amplitude, after agonist application / time until reaching the peak amplitude / time where signal decreased below 50 % of the maximum signal amplitude / time of signal decay back to baseline / time signal stayed above initial baseline: 1 mM Ace K, 3 mM aspartame, 10 mM cyclamate, 0.3 mM NHDC; for time until reaching the peak amplitude: including 20 sec of baseline monitoring prior to agonist application; for time where signal decreased below 50 % of the maximum signal amplitude: including 20 sec of baseline monitoring; for time of signal decay back to baseline / time signal stayed above initial baseline: raw fluorescence traces; for EC50: w/o lactisole, agonist concentrations on x-axis in mM, 3 independent experiments in duplicates, read-out: EC50 of TAS1R2/TAS1R3 activation (ΔF/F)
T1 construct: expressed in transfected cells; host or cells: HEK293 Flp-In T-Rex cells; Gα15Gi3 and TAS1R2 constitutive, TAS1R3 tetracycline-inducible
T1 sequence (Q8TE23 20-839): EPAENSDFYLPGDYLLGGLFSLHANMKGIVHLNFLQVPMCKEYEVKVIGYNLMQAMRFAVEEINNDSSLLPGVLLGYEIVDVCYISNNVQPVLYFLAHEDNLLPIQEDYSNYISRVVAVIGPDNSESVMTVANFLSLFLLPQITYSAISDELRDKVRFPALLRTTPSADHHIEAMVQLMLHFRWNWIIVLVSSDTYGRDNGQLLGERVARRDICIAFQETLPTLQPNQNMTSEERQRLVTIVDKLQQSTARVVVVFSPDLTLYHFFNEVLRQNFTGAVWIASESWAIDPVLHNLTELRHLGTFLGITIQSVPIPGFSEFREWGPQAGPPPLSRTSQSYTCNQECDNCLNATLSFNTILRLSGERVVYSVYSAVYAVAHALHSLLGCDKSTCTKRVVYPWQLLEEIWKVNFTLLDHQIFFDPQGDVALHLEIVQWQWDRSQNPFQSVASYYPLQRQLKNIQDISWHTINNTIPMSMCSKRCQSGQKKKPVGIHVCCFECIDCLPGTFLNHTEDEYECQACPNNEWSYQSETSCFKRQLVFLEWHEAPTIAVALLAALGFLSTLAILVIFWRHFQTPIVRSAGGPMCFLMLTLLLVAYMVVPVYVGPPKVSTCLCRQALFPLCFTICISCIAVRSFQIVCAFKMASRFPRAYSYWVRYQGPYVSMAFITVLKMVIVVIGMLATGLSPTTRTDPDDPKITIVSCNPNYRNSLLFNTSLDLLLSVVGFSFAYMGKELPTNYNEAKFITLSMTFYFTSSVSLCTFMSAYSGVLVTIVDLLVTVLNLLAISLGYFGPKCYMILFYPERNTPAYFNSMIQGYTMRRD
T1 sequence (Q7RTX0 21-852): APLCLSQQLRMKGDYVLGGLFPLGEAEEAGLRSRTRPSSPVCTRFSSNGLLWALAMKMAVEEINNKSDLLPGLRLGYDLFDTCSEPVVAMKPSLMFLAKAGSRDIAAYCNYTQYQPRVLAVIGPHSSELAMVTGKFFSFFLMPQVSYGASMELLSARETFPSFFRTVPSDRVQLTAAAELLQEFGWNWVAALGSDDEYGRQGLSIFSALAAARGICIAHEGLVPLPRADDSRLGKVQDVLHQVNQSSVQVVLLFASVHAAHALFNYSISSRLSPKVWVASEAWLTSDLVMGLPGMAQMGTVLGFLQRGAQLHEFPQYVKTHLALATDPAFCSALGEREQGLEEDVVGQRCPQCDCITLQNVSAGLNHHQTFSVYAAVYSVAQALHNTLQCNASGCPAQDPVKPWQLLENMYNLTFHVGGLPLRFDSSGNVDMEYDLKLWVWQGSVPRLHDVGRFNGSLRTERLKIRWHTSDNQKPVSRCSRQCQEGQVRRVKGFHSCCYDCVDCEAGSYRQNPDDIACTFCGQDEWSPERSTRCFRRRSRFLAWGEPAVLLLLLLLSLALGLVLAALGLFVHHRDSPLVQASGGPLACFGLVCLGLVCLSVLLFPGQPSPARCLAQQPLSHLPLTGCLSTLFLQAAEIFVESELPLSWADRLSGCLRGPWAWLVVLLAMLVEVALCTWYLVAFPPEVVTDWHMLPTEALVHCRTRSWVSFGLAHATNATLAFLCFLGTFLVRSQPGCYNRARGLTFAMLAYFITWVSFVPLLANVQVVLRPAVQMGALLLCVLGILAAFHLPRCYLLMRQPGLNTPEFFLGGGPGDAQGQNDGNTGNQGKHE
Protocol: For the functional characterization of the human sweet taste receptor, we used HEK293 Flp-In T-Rex cells stably transfected with the G protein chimera Gα15Gi3, and the two subunits of the human sweet taste receptor, TAS1R2 and TAS1R3 ([Galindo-Cuspinera et al., 2006]). The G protein chimera and TAS1R2 subunit are constitutively expressed, whereas the expression of the TAS1R3 subunit is inducible through addition of 0.5 µg/mL tetracycline. The experiments were done exactly as before ([Behrens et al., 2017], [Ben Abu et al., 2021]). Briefly, cells were seeded into 96-well plates (black, flat clear bottom) treated with 10 µg/mL poly-D-lysine and grown in low-glucose DMEM supplemented with 10 % fetal bovine serum, 100 U Penicillin/mL, 0.1 mg/mL Streptomycin, 2 mM L-glutamine, at 37 °C, 5 % CO2, saturated air-humidity overnight. About 24 h before the experiment tetracycline was added to induce TAS1R3 expression. Next, cells were loaded for 1 h with Fluo-4 am in the presence of 2.5 mM probenecid and washed twice with C1-buffer (130 mM NaCl, 5 mM KCl, 10 mM HEPES, 1 mM sodium pyruvate, and 2 mM CaCl2, pH 7.4). Then, plates were placed in a fluorometric imaging plate reader (FLIPR^tetra, Molecular Devices, San Jose, CA, United States) for automated compound application and measurement of fluorescence changes. Fluorescence changes of control wells not induced with tetracycline were subtracted from the data. Next, measurements were corrected for background fluorescence. Dose-response relationships of three independent experiments each performed in duplicates were calculated with SigmaPlot 14.0 software using the function f(x) = min+(max − min)/(1+(x/EC50)^nH).
TI-ratings were recorded and analyzed using the software EyeQuestion® 4.11.74 (Logic8 BV, NL) online and MS Excel 16.0 (Microsoft Corporation, USA). The statistical analysis and graphical representation were performed with GraphPad Prism 9.0 for sensory results and with SigmaPlot 14.0 for cell experiments. To evaluate the sensory dose–response effects of ascending sweetener concentration w/o lactisole, an asymmetrical five-parameter curve (Richard́s five-parameter dose–response curve) was fitted. The data are presented as means ± SEM from at least 16 single evaluations. Statistical significance between the different test compounds and concentration-dependent effects was assessed by two-way ANOVAs with Tukey post hoc test using Graph Pad Prism. The normal distribution of the data sets was checked by evaluation of the kurtosis (between −7 to + 7) and the skewness (between −3 to + 3). Equal variance was tested using Levenés test. In case the assumptions of a normal distribution and equal variance were not met, the non-parametric ANOVA on ranks (Kruskal-Wallis Test) with Dunn's post-hoc test without the calculation of interaction was applied. A Pearson product moment correlation was conducted to investigate relationships between sensory results and cell responses of the tested sweeteners.

[2] = tested on: sweetness; parameters: method as in Schiffman et al., 1995; settings: compared to 5 % sucrose; ref Schiffman et al., 1995; cited from earlier work

mode of inhibition by lactisole (shift of dose-response curve), cell experiments [1] | time until reaching peak activity after agonist application [1] [s] | time where signal decreased below 50 % of the maximum signal amplitude, after agonist application [1] [s] | time until reaching the peak amplitude [1] [s] | time where signal decreased below 50 % of the maximum signal amplitude [1] [s] | time of signal decay back to baseline / time signal stayed above initial baseline [1] | EC50 [1] [mM] | Compound | sensory sweetness factor [2]
competitive inhibition | 27 | 87 | 47 | 107 | ≥ 6 min | 0.05 ± 0.01 | COc1ccc(CCC(=O)c2c(O)cc(O[C@@H]3O[C@H](CO)[C@@H](O)[C@H](O)[C@H]3O[C@@H]3O[C@@H](C)[C@H](O)[C@@H](O)[C@H]3O)cc2O)cc1O [NHDC, neohesperidin dihydrochalcone] | approximately 900
Allosteric inhibition | 27 | 65 | 47 | 85 | about 3 min | 0.36 ± 0.04 | CC1=CC(=O)NS(=O)(=O)O1 [acesulfame K] | 
Allosteric inhibition | 23 | 73 | 43 | 93 | ≥ 6 min | 0.33 ± 0.02 | COC(=O)[C@H](Cc1ccccc1)NC(=O)[C@@H](N)CC(=O)O [aspartame] (H-Asp-Phe-OMe) | 
competitive inhibition | 19 | 73 | 39 | 93 | ≥ 6 min | 1.51 ± 0.11 | O=S(=O)(O)NC1CCCCC1 [cyclamate] | around 30
